# Source: paper PMC10590419, “Structural and mechanistic insights into the inhibition of respiratory syncytial virus polymerase by a non-nucleoside inhibitor” (Communications Biology, 2023)
# Where two headings read alike, the source gives them in different places.
# How the values were obtained:
# in vitro [1] = conditions: human
# recombinant RSV L+P = recombinant RSV L+P (Human respiratory syncytial virus A, UniProt P28887); experiment: De novo RNA synthesis assay, recombinant RSV L+P, Tr14 template; assay type: biochemical, Human RSV (strain A2)
# Protocol: The reactions were performed as described by Cressey et al.[22]. […] The reactions were incubated at 30 °C for 1 h and then stopped by adding gel loading buffer containing 90% formamide, 50 mM EDTA, 0.05% Xylene Cyanol and Bromophenol Blue. Samples were denatured at 95 °C for 5 min and run on a 22.5% polyacrylamide urea sequencing gel at 80 W with radiolabeled RNA markers generated via the T7 DNA dependent RNA polymerase (DdRp). The gel was dried, exposed to a phosphor-screen, scanned on a Typhoon scanner (GE Healthcare), and quantified using ImageQuant (GE Healthcare). Bands were identified as extension products or initiation products by the 11-nucleotide ppp[…] and 2-nucleotide pppGA RNA markers, respectively. Radiolabeled RNA markers corresponding to pppGA, ppp[…], and intermediates were generated utilizing a reaction by T7 DNA-dependent RNA polymerase (AM2718, Ambion)[53]. DNA oligos: 5’-[…]-3’ (T7 promoter primer) and 5’-[…]-3’ (T7 promoter primer + target sequence template) were synthesized at IDT. Due to a mechanistic idiosyncrasy in T7 DdRp, an additional Adenosine residue was placed between the T7 promoter and the target sequence in the template. Each 40 µl reaction contained 5 mM ATP, 5 mM CTP, 5 mM GTP, 100 nM annealed DNA primer and template, 20 U T7 DdRp, 1x T7 DdRp Buffer (40 mM Tris pH 7.8, 20 mM NaCl, 6 mM MgCl2, 2 mM Spermidine HCl, 10 mM DTT), and 20 µCi of [α-^33P]ATP. Reactions were incubated at 30 °C for 5 h. Then 1 µl of reconstituted DNase I (Ambion) was added and incubated for an additional 10 min at 37 °C. This reaction was quenched with the addition of 60 µl gel loading buffer.
# Supplementary Figure 4. Inhibition of de novo initiation and extension of RSV L-P RNA synthesis by JNJ-8003. a. reaction scheme. b. a sequencing gel image showing RNA products […]
# contained 10 nM RSV L-P, 2 μM RNA template (Tr14), 500 μM GTP, 10 μM ATP, 170 nM [α-33P]ATP, so RNA synthesis started from +3 site and paused with a major 11-mer product. c.
# Data was from the quantitation results of the gel image in b. d. The reactions […]
# Data points indicate the mean, and error bars depict the SD of three technical replicates. e. a sequencing gel image showing RNA products synthesized by RSV L-P along with no enzyme control. Reaction condition was same as in b with no compound added. […]
# [2] = tested on: PIV-3 (recombinant JS-derived strain encoding GFP); assay type: cell-based, parainfluenza virus type 3
# [3] = tested on: RSV A clinical isolates and laboratory strains; experiment: Inhibition of RSV-A clinical isolates and laboratory strains, RT-qPCR, HeLa; assay type: cell-based; conditions: human respiratory syncytial virus, 10 strains, read-out: Median EC50
# Protocol: (§1) Then, 100 µL of a HeLa cell suspension (5 × 10^4 cells/mL) in culture medium was added to each well. […] After 3 days of incubation, the supernatant was removed from wells. Plates were washed twice with ice-cold PBS (100 µL/well), and were then sealed and stored overnight at −80 °C. Next, 50 µL of lysis solution supplemented with DNAse was added to the plates and incubated for 5 min followed by the addition of 5 µL stop solution (Ambion Cell-to-CT bulk lysis reagent buffer). […] Roche) for cDNA synthesis. Reverse transcription was performed at 42 °C for 30 min, followed by denaturation at 95 °C for 5 min. […] The reaction consisted of a denaturation step (95 °C for 600 s), 45 cycles of denaturation (95 °C for 15 s) and annealing/elongation (60 °C for 60 s), and a step of cooling (40 °C for 10 s).
# [4] = Cell viability of replicon cell line (CellTiter-Glo); assay type: cell-based; conditions: hamster, APC-126 cells (BHK-derived, stable RSV A2 replicon); APC-126, CellTiter-Glo
# Protocol: (§2) The RSV subgenomic replicon system was licensed from Apath (Apath, NY, USA)[49],[50]. The BHK-derived cell line (APC-126) containing the stable RSV A2 replicon was cultured in DMEM/Hams F-12 medium supplemented with 10% (v/v) FBS (Gibco), 1% (v/v) penicillin (10,000 units/mL) and streptomycin (10,000 µg/mL) solution (Gibco), 1% (v/v) MEM non-essential amino acids solution (Gibco), 5% (v/v) Tryptose Phosphate Broth solution (29.5 g/l) (Sigma-Aldrich) and 10 µg/ml of blasticidin solution (Invivogen). Cells were maintained at 37 °C in a humidified 5% CO2 atmosphere. 5000 cells were plated in 96-well clear plates (Corning) in 100 µl/well of medium. […] Cell viability (CC50 and CC90) was measured with a CellTiter-Glo cell proliferation assay (Promega, 100 µl/well of reagent). Results were expressed as EC50 and EC90 values as well as CC50 and CC90 values.
# [5] = tested on: RSV A2 replicon in APC-126 cells; experiment: RSV subgenomic replicon (minireplicon) assay, luciferase; assay type: cell-based; conditions: human respiratory syncytial virus, APC-126, 72 h, read-out: Median EC50
# Protocol: as §2
# in vitro [6] = conditions: human; remark: listed apart in the source
# [7] = tested on: RSV B clinical isolates and laboratory strains; experiment: Inhibition of RSV-B clinical isolates and laboratory strains, RT-qPCR, HeLa; assay type: cell-based; conditions: human respiratory syncytial virus, 6 strains, read-out: Median EC50
# Protocol: as §1
# [8] = repeat in triplicate, 0.093 nM to 200 nM
# Sequence of recombinant RSV L+P (P28887 whole entry): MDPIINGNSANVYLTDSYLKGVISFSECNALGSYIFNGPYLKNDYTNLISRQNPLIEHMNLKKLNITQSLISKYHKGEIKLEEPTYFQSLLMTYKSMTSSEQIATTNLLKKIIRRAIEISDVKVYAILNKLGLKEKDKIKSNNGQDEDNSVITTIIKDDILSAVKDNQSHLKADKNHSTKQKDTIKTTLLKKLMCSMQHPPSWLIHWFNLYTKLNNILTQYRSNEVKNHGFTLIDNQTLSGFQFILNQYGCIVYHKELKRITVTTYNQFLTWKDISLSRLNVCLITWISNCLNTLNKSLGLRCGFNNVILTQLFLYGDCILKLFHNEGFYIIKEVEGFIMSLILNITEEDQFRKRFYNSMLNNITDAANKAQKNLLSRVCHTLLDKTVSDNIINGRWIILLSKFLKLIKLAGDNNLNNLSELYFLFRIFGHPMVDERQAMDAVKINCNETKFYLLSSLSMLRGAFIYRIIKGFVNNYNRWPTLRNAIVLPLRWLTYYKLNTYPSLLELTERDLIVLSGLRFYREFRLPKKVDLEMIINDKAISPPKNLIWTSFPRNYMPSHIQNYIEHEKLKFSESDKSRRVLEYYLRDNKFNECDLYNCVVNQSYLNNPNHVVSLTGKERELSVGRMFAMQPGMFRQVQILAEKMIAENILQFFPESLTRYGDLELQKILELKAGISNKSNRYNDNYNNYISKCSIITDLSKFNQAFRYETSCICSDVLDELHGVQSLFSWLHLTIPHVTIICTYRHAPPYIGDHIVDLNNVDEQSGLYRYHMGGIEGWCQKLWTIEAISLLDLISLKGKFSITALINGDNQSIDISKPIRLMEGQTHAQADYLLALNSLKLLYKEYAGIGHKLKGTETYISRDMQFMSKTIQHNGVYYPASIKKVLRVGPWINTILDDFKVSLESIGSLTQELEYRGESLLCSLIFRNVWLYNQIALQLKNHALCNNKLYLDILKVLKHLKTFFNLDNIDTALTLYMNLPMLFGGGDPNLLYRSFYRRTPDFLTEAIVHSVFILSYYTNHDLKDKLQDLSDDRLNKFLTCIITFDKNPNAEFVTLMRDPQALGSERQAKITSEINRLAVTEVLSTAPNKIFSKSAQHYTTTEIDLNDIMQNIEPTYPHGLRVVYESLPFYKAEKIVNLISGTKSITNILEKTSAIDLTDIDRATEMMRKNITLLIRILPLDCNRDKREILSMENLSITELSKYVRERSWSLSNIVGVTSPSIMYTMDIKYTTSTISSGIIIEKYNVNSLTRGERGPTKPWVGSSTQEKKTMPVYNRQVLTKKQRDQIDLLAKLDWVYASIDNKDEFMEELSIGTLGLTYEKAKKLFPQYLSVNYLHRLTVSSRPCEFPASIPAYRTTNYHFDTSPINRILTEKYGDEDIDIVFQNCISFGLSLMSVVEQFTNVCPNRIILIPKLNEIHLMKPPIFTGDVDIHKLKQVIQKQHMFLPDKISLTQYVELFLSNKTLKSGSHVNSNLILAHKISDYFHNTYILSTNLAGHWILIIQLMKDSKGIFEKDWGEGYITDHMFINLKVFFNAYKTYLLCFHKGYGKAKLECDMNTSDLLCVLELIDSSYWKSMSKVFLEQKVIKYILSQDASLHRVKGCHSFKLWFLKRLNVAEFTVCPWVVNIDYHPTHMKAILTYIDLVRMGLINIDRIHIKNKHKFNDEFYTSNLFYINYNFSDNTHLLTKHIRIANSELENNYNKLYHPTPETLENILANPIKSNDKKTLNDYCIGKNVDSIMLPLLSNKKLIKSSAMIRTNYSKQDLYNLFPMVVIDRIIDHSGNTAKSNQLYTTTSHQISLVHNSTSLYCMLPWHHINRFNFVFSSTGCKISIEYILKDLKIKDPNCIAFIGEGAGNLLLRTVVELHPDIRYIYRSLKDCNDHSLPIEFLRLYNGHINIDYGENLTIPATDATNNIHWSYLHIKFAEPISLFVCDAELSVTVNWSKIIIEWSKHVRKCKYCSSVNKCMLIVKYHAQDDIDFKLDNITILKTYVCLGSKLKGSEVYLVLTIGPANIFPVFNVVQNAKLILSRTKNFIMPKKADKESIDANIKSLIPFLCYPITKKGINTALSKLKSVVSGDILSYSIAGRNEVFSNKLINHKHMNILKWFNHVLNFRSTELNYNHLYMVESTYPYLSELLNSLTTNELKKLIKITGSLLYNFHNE
# Sequence of recombinant RSV L+P (P03421 whole entry, further chain): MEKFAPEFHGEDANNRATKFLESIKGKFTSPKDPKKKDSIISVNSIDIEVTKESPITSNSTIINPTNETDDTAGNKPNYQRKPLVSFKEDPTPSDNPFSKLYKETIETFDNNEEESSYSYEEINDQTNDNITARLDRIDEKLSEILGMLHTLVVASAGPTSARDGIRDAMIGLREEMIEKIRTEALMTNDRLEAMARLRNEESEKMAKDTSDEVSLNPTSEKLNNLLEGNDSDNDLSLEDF
smiles,measurement,setting,value
COc1cc(C(=O)NC[C@](O)(c2cc(C(C)(C)O)c(F)c(-c3ccc(F)cc3)n2)C(F)(F)F)cc2cc(C)nnc12 [JNJ-8003],CC50 at 3 days,in vitro [1],27000 nM
same,"maximal inhibition, 11-mer product",recombinant RSV L+P; 9.3 pM to 200 μM,99%
same,"maximal inhibition, de novo pppGpA formation",recombinant RSV L+P; 9.3 pM to 200 μM,65%
same,IC50,"recombinant RSV L+P; 9.3 pM to 200 μM, read-out: IC50, 11-mer product",4.7 nM
same,IC50,"recombinant RSV L+P; +3 site, tr-14, 9.3 pM to 200 μM, read-out: IC50, de novo pppGpA dinucleotide formation",5.1 nM
same,"maximal inhibition, 11-mer product",recombinant RSV L+P; [8],100%
same,"maximal inhibition, de novo pppGpA formation",recombinant RSV L+P; [8],69%
same,IC50,"recombinant RSV L+P; repeat in triplicate, 0.093 nM to 200 nM, read-out: IC50, 11-mer product",3.6 nM
same,IC50,"recombinant RSV L+P; repeat in triplicate, 0.093 nM to 200 nM, read-out: IC50, de novo pppGpA formation",2.3 nM
same,inhibition (in words),[2],negligible inhibition
same,EC50,[3],0.18 nM
same,CC50 at 3 days,[4],11000 nM
same,EC50,[5],0.15 nM
same,CC50,in vitro [6],> 25000 nM
same,EC50,[7],0.1 nM
